Experiments:
[1] = Topical application without propylene glycol; format: in vivo
[2] = test system: hepatic and intestinal glucuronidation; conditions: concomitant administration; more in humans than rats; cited from earlier work

SMILES	Efficacy in topical applications [1]	Increase of bioavailability (serum concentration and extent of intestinal absorption) [2]
N[C@@H](CCC(=O)O)C(=O)[O-].O.[Na+] [MSGLM, Monosodium L-Glutamate Monohydrate]	ineffective	–
O=C(/C=C/C=C/c1ccc2c(c1)OCO2)N1CCCCC1 [Piperine]	–	up to 20 fold
